How the values were obtained:
Swiss albino mice [1] = test: assay of contortions induced by phenylbenzoquinone; format: in vivo; details: for ED50: Mus musculus
Swiss albino mice [2] = test: hot-plate assay; format: in vivo; details: Mus musculus, 0.5 h, sc, hot-plate 55° C., 30 minutes after administration, read-out: ED-50 hot-plate assay (55° C.)
Method: The product under study was administered s.c. or i.p. and 30 minutes later the analgesic effect was registered. For this the animals were placed on a metallic surface kept at 50° C. or 55° C. and the time registered (latency) until the licked their hind legs and a jump. The analgesic activity was calculated at each dose, comparing the potency of the treated group with the control group. Using the results obtained the ED-50 was calculated.

[3] = mice, oral route, dose inhibiting by 50% the contortions induced by phenylbenzoquinone i.p. 60 minutes after product
[4] = mice, s.c. route, dose inhibiting by 50% the contortions induced by phenylbenzoquinone i.p. 30 minutes after product

Q: With `CC(=O)Oc1ccccc1C(=O)O` [Aspirin, aspirin] as the molecule, how does the ED50 (Swiss albino mice [1]; 0.5 h, mice, s.c. route, dose inhibiting by 50% the contortions induced by phenylbenzoquinone i.p. 30 minutes after product, read-out: ED-50 S.C. route) read?
A: 80 mg/kg

Q: What about the ED50 (Swiss albino mice [1]; 1 h, mice, oral route, dose inhibiting by 50% the contortions induced by phenylbenzoquinone i.p. 60 minutes after product, read-out: ED-50 Oral route) of the same molecule?
A: 100 mg/kg

Q: `Cc1c(N(C)CS(=O)(=O)[O-])c(=O)n(-c2ccccc2)n1C.[Na+]` [Dipirone, dipirone] was tested. Which “ED-50 Oral route” value (Swiss albino mice [1]; [3]) did it give?
A: 223 mg/kg

Q: What about the “ED-50 S.C. route” value (Swiss albino mice [1]; [4]) of the same molecule?
A: 24 mg/kg

Q: `OC1(c2ccc(Cl)cc2)CCN(CCCCn2cc(Cl)cn2)CC1` [Example 5] was tested. Which “ED-50 Oral route” value (Swiss albino mice [1]; [3]) did it give?
A: 20 mg/kg

Q: What about the “ED-50 S.C. route” value (Swiss albino mice [1]; [4]) of the same molecule?
A: 28 mg/kg

Q: Which ED50 (Swiss albino mice [2]) does the source give for `CN1CC[C@]23c4c5ccc(O)c4O[C@H]2[C@@H](O)C=C[C@H]3[C@H]1C5` [Morfine, morphine] here?
A: 2 mg/kg

Q: And the ED50 (Swiss albino mice [1]; 0.5 h, read-out: ED-50 S.C. route)?
A: 1 mg/kg

Q: And the ED50 (Swiss albino mice [1]; 1 h, read-out: ED-50 Oral route)?
A: 4 mg/kg
